Ten molecules from patent US6617350B2, “Inhibitors of aspartyl protease” (priority 1999, dated 2003) can be followed below.

pIC50, pKi: −log10 of the molar value. Read-outs that look alike come from different tables or passages of the source.

Experiment [1] deals with HIV-1 (strain IIIB). Description: microbe, parasite or virus in culture. The conditions noted are these: anti-viral potency in MT-4 cells, read-out: IC50. The experiment is classed as cell-based.
Experiment [2] deals with HIV-1 protease (Human immunodeficiency virus type 1 group M subtype B, UniProt P04585). Description: biochemical. The conditions noted are these: Table 12; HIV-1 protease; read-out: Ki.
[3] abbreviates: Human immunodeficiency virus 1, IIIB, MT4, Table 12.

The pIC50 is the IC50 on a negative log10 scale, so that one unit is a factor of ten. A word on the pKi: it is the negative decadic logarithm of the Ki, by convention in mol/L. For `COc1ccc(S(=O)(=O)N(C[C@@H](O)[C@H](Cc2ccccc2)NC(=O)OC2COCOC2)CC(C)(C)CCC#N)cc1` [Compound 19, {(1S,2R)-1-Benzyl-3-[(4-cyano-2,2-dimethyl-butyl)-(4-methoxy-benzenesulfonyl)-amino]-2-hydroxy-propyl}-carbamic acid[1,3]dioxan-5-yl ester], the pIC50 in experiment [1] (setting [3]) was 6.30 to 7.00. Besides, the pKi in experiment [2] is above 9.00.

With `CCC(CCC1(C)OCCO1)CN(C[C@@H](O)[C@H](Cc1ccccc1)NC(=O)OC(C)(C)C)S(=O)(=O)c1ccc(OC)cc1` (mixture of isomers) [Compound 202, tert-ButylN-((1S,2R)-1-benzyl-3-[2-ethyl-4-(2-methyl-1,3-dioxolan-2-yl)butyl][(4-methoxyphenyl)sulfonyl]amino-2-hydroxypropyl)carbamate], in experiment [1] (setting [3]), the negative-log IC50 (pIC50) was below 6.00. For the same molecule, in experiment [2], the negative-log Ki (pKi) is 8.00 to 9.00.

As to `COc1ccc(S(=O)(=O)N(C[C@@H](O)[C@H](Cc2ccccc2)NC(=O)O[C@H]2CCOC2)CC(C)(C)CCCC(C)=O)cc1` [Compound 209], in experiment [1] (setting [3]), the pIC50 was 6.30 to 7.00. Further, the negative logarithm of the Ki (pKi) in experiment [2] is above 9.00.

For the molecule `CC(C)(CCC#N)CN(CC(O)C(Cc1ccccc1)NC(=O)OC1COC2OCCC12)S(=O)(=O)c1ccc2c(c1)OCCO2` (centres unmarked) [Compound 41], the pIC50 in experiment [1] (Table 12) was at least 7.00. Further, in experiment [2], the pKi is above 9.00.

In the case of `CNC(=O)OCCC(C)(C)CN(CC(O)[C@H](Cc1ccccc1)NC(=O)OC1COC2OCCC12)S(=O)(=O)c1ccc(OC)cc1` (stereo partly drawn) [Compound 221, (3R,3aS,6aR)-Hexahydrofuro[2,3-b]furan-3-yl N-((1S,2R)-1-benzyl-3-(2,2-dimethyl-4-N′-methylcarbamoyloxybutyl)[(4-methoxyphenyl)sulfonyl]amino-2-hydroxypropyl)carbamate], the pIC50 in experiment [1] (setting [3]) was at least 7.00. The pKi in experiment [2] was above 9.00.

Regarding `COc1ccc(S(=O)(=O)N(CCCCC(C)=O)C[C@@H](O)[C@H](Cc2ccccc2)NC(=O)O[C@H]2CCOC2)cc1` [Compound 205, (3S)-Tetrahydro-3-furanyl N-(1S,2R)-1-benzyl-2-hydroxy-3-[[(4-methoxyphenyl)sulfonyl](5-oxohexyl)amino]-propylcarbamate], the negative logarithm of the IC50 (pIC50) in experiment [1] (setting [3]) is 6.00 to 6.30. Further, the pKi in experiment [2] is above 9.00.

As to `COc1ccc(S(=O)(=O)N(CCC#N)C[C@@H](O)[C@H](Cc2ccccc2)NC(=O)OC2COCOC2)cc1` [Compound 125], the negative-log IC50 (pIC50) in experiment [1] (setting [3]) is below 6.00. In addition, the pKi in experiment [2] was above 9.00.

In the case of `CC(C)(CCCNS(C)(=O)=O)CN(C[C@@H](O)[C@H](Cc1ccccc1)NC(=O)O[C@H]1CO[C@H]2OCC[C@H]21)S(=O)(=O)c1ccc2c(c1)OCCO2` [Compound 271, (3R,3aS,6aR)hexahydrofuro[2,3-b]furan-3-yl N-[(1S,2R)-3-((2,3-dihydro-1,4-benzodioxin-6-ylsulfonyl)2,2-dimethyl-5-[(methylsulfonyl)amino]pentylamino)-1-benzyl-2-hydroxypropyl]carbamate], the pIC50 in experiment [1] (setting [3]) was at least 7.00. In addition, the negative-log Ki (pKi) in experiment [2] is above 9.00.

Consider `CNc1cccc(S(=O)(=O)N(C[C@@H](O)[C@H](Cc2ccccc2)NC(=O)O[C@H]2CO[C@H]3OCC[C@H]32)CC(C)(C)CCCNC(=O)OC)c1` [Compound 264, (3R,3aS,6aR)hexahydrofuro[2,3-b]furan-3-yl N-[(1S,2R)-1-benzyl-2-hydroxy-3-(5-[(methoxycarbonyl)amino]-2,2-dimethylpentyl[3-(methylamino)phenyl]sulfonylamino)propyl]carbamate], for which the negative logarithm of the IC50 (pIC50) in experiment [1] (setting [3]) was at least 7.00. The negative-log Ki (pKi) in experiment [2] is above 9.00.

Regarding `COc1ccc(S(=O)(=O)N(CC(C)CCC(C)=O)CC(O)[C@H](Cc2ccccc2)NC(=O)OC2CCOC2)cc1` (stereo partly drawn) [Compound 207, (3S)-Tetrahydro-3-furanyl N-(1S, 2R)-1-benzyl-2-hydroxy-3-[[(4-methoxyphenyl)sulfonyl](2-methyl-5-oxohexyl)amino]propylcarbamate], the pIC50 in experiment [1] (setting [3]) is at least 7.00. Moreover, the pKi in experiment [2] was above 9.00.
